Structures can show the parent of a compound that is named as a salt.
Assays:
Format in all cases: physicochemical
[1] = Therapeutic spreading on unoxidized vs oxidized parylene layer (Example 1)
Excerpt: Referring to FIG. 4, Example 1 is an experiment to compare therapeutic spreading with respect to an unoxidized parylene layer and an oxidized parylene layer. The therapeutic analyte was Doxorubicin-HCl. Doxorubicin-HCl is the salt version of the anti-cancer chemotherapeutic Doxorubicin: (8S,10S)-8-acetyl-10-[(2S,4S,5S,6S)-4-amino-5-hydroxy-6-methyl-oxan-2-yl]oxy-6,8,11,14-tetrahydroxy-1-methoxy-9,10-dihydro-7H-tetracene-5,12-dione, having four fused six member rings of which two are unsaturated and one is a dione and a pendant sugar group The Doxorubicin-HCl has a red color and is easily visualized with no additional modification.
FIG. 5 is plot of therapeutic intensity vs. distance a from the a peripheral margin along a great diameter. Discarding values at the margin, for unoxidized paralyene there are two peaks and three troughs with amplitude variation ranging from about 0.009 to about 0.012 with units being arbitrary values of intensity measurement. In contrast, for oxidized paralyene, there are no significant peaks or troughs and near constant intensity at about 0.008.

[2] = Doxorubicin-HCl elution, multilayer laminate vs single layer barrier, in water and media (Example 5); conditions: for elution rate: compared with 0.05 gram-layer constructs
[3] = Paclitaxel elution from parylene devices (Example 9); conditions: uncovered devices (no top layer); PBS, 37 degrees Celsius; judged by visualization of the devices
Excerpt: Referring to FIG. 14, Example 9 is an experiment to test the elution of paclitaxel (taxol). Paclitaxel is smaller hydrophobic molecule drug and has the chemical composition of (2α,4α,5β,7β,10β,13α)-4,10-bis(acetyloxy)-13-{[(2R,3S)-3-(benzoylamino)-2-hydroxy-3-phenylpropanoyl]oxy}-1,7-dihydroxy-9-oxo-5,20-epoxytax-11-en-2-yl benzoate. It is a microtubule stabilizing therapeutic with anti-cancer properties.
A series of trilayer devices were constructed having a top barrier layer having a mass of 0.3, 0.45, or 0.6 gram oxidized parylene.
Devices containing no top layer (uncovered) were not maintained as part of these experiments in that all of the drug is released from uncovered devices within the first 24 hours. […] With rapidly increasing concentration, the paclitaxel rapidly precipitates out of solution (visible by the accumulation of white precipitate) making quantification of the released drug impossible. Drug release from uncovered devices was determinable by the visualization of the devices and noticing the lack of drug on their surfaces.
For each time point, peak absorbance was measured at 230 nanometers at which paclitaxel is readily detectable.

[4] = oxidized parylene relative to unoxidized parylene, 50 μg desiccated, two replicates

radius of stained area [1, 4] | surface area of stained area [1, 4] | drug release vs single layer device of 0.05 gram laminate ([2]; media, multilayer laminate 3×0.05 grams) | drug release vs single layer device of 0.05 gram laminate ([2]; media, multilayer laminate 5×0.05 grams) | drug release vs single layer device of 0.05 gram laminate ([2]; media, multilayer laminate 7×0.05 grams) | elution profile compared among constructs ([2]; media, multilayer laminate constructs of 3×0.05, 5×0.05 and 7×0.05 grams) | drug release ([2]; media, single layer laminate device of 0.15 grams, regular parylene C) | drug release ([2]; media, single layer laminate device of 0.25 grams, regular parylene C) | drug release ([2]; media, single layer laminate device of 0.35 grams, regular parylene C) | elution profile compared among constructs ([2]; water, constructs of 1×0.05, 3×0.05, 5×0.05 and 7×0.05 grams) | elution rate ([2]; water, single layer laminate device of 0.15 grams) | elution rate ([2]; water, single layer laminate device of 0.25 grams) | drug release ([2]; water, single layer laminate device of 0.35 grams) | time within which all of the drug is released [3] | SMILES | therapeutic intensity ([1]; oxidized parylene, no significant peaks or troughs, near constant)
about twice the radius | four times the surface area | release less drug | release less drug | release less drug | approximately the same elution profile | do not release the drug | do not release the drug | do not release the drug | approximately the same elution profile | slower elution | slower elution | does not release the drug |  | COc1cccc2c1C(=O)c1c(O)c3c(c(O)c1C2=O)C[C@@](O)(C(=O)CO)C[C@@H]3O[C@H]1C[C@H](N)[C@H](O)[C@H](C)O1 [Doxorubicin-HCl] | about 0.008 arbitrary values of intensity measurement
 |  |  |  |  |  |  |  |  |  |  |  |  | ≤ 24 h | CC(=O)O[C@H]1C(=O)[C@@]2(C)[C@H]([C@H](OC(=O)c3ccccc3)[C@]3(O)C[C@H](OC(=O)[C@H](O)[C@@H](NC(=O)c4ccccc4)c4ccccc4)C(C)=C1C3(C)C)[C@]1(OC(C)=O)CO[C@@H]1C[C@@H]2O [paclitaxel, (2α,4α,5β,7β,10β,13α)-4,10-bis(acetyloxy)-13-{[(2R,3S)-3-(benzoylamino)-2-hydroxy-3-phenylpropanoyl]oxy}-1,7-dihydroxy-9-oxo-5,20-epoxytax-11-en-2-yl benzoate] | 

— patent US9040071B2, “Pary-xylene based microfilm elution devices” (Cute Lovable Teddy Bear, LLC., priority 2009, dated 2015)
